Test results: patent publication US20250304625A1, “ARTICLES AND METHODS FOR INHIBITING METHIONINE AMINOPEPTIDASE ACTIVITY” (Vanderbilt University, priority 2022, published 2025)

How the values were obtained:
TKPTS cells [1] = test: Seahorse XF96 cell mitochondrial stress test (oxygen consumption rate); format: cell-based, murine; conditions: Zng1^−/− cells pre-treated with 3 μM TPA
Procedure: 8,000 WT or Zng1 mutant vehicle treated TKPTS cells or TKPTS cells serially passaged in 3 μM TPA (Sigma, 723134) were plated in individual wells of seahorse plates in complete DMEM F12 media described above. Cells were resuspended in mitochondria assay media (Seahorse Agilent pH 7.4 media+1 mM pyruvate+10 mM glucose+2 mM glutamine). No TKPTS cells were added to the four wells in the corners of the plate as a background control. For the mitochondrial stress test, the cartridge was sequentially loaded with oligomycin (15 μM), FCCP (15 μM), and rotenone/antimycin A (5 μM) (diluted in mitochondria assay media) for injection into the wells. To normalize across wells by cell density, the Seahorse plate was imaged using a BioTek Cytation 5. Oxygen consumption and extracellular acidification rates were collected using a Seahorse XFe96 Analyzer and analyzed using Wave Desktop software (Agilent Technologies).

TKPTS cells [2] = test: TKPTS cell proliferation by CellTrace flow cytometry; format: cell-based, murine; conditions: Zng1 mutant cells compared to WT, 3 μM TPA, three days
Procedure: TKPTS cells were seeding at 2,000 to 4,000 cells per well of 24- or 12-well tissue culture treated multi-well plates and incubated overnight at 37° C. Cells were staining with CellTRACE violet (Invitrogen, C34557) as described by manufacturer's protocol. Briefly, CellTRACE solution was prepared in PBS at a 1:1,000 dilution, added to the cells, and cells were incubated for 20 min at 37° C. Cells were then washed two times in cell culture media supplemented with 7% FBS, and replaced with fresh cell culture media supplemented with desired chemical treatments (3 μM TPA, Sigma, 723134; 5 μg/ml TNP470, Sigma, T1455; or 50 nM Bengamide B, Santa cruz, sc-397521A). Stock solutions of drugs were prepared in ACS-grade DMSO (Fisher Scientific, D136). […] After three days of growth, cells were stained with MitoTracker far-red (Invitrogen, M22426; 1:2500 dilution for 20 min at 37° C.) and MitoSOX red (Molecular probes, M36008: 1,1000 for 20 min at 37° C.) following manufacture's protocols. Cells were washed with PBS, trypsinized, and transferred to Eppendorf tubes prior to fixation in 4% PFA (Alfa aesar, J61899). Cells were fixed for 20 min at room temperature, centrifuged at 200×g for 10 min and washed with PBS prior to resuspension in 300 μl FACS buffer (2% FBS, 0.02% sodium azide in PBS). All flow cytometry data were collected using a BD LSRII flow cytometer with FACSDIVA software and analyzed using FlowJo (FlowJo LLC). Samples were gated forward scatter height (FSC-H) by forward scatter area (FSC-A) and side scatter height (SSC-H) by side scatter area (SSC-A) to remove doublet populations. The singlet population was gated SSC-A by FSC-A to isolate live cells. The resulting cell population was then assessed for assay-specific fluorescent markers and the median fluorescence intensity (MFI) quantified.

cell lines = conditions: compared to other chelators (e.g. TPEN); cited from earlier work
zng1 transcript = test: zng1 expression in whole zebrafish larvae (qPCR); format: in vivo; conditions: WT larvae, immersion, 20 μM TPEN vs ethanol vehicle
Procedure: For all experiments larval zebrafish were bred naturally and collected into embryo media and were maintained at 28° C. on a 14/10 h light/dark cycle for duration of experiments. For survival experiments, zebrafish larvae were split into even densities into 6 or 12 multi-well plates in 5 mL or 1 mL embryo media respectively at 3 dpf. Stock solutions of METAP2 inhibitor TNP-470 (Sigma, T1455) and METAP1/2 inhibitor Bengamide B (Santa cruz, sc-397521A) were prepared in ACS-grade DMSO (Fisher Scientific, D136) and TPEN (Sigma, P4413) was prepared in ethanol and stored at −20° C. TNP-470, Bengamide B, and/or TPEN were applied into embryo media as well as a DMSO and/or ethanol vehicle controls at 3 dpf. Zebrafish survival was monitored daily until 6 dpf and all moribund or dead animals were removed. […]
For RNA isolation from dissected mouse tissue, mice were humanely euthanized, tissues harvested and immediately flash frozen in liquid nitrogen and stored at −80C. […] Quantitative PCR was performed in duplicate-quadruplicate 25 μL reactions using 2× iQ SYBR Green SuperMix (BioRad, 1708882) run on an BioRad CFX96 Real-Time System instrument using gene-specific primers (zebrafish: P34-P39, mice: P40-P43, cell lines: 44-69, Table S5). Data were analyzed with the ΔΔCt method (Livak and Schmittgen, 2001) or presented as relative expression values.

SMILES | basal and maximal respiration, ATP production, and proton leak (OCR) (TKPTS cells [1]) | proliferation (CellTrace dye retention) (TKPTS cells [2]) | cytotoxicity towards cell lines (cell lines) | zng1 transcript (zng1 transcript)
c1ccc(CN(Cc2ccccn2)Cc2ccccn2)nc1 [TPA, tris(2-pyridylmethyl)amine] | significantly impaired | significantly slowed proliferation | lower cytotoxicity | 
c1ccc(CN(CCN(Cc2ccccn2)Cc2ccccn2)Cc2ccccn2)nc1 [TPEN, N,N,N′,N′-Tetrakis(2-pyridylmethyl)ethylenediamine] |  |  |  | significant induction
